Like-named read-outs stand apart in the source and are kept apart here.
Columns and labels:
Cyclooxygenase = target: T1, Cyclooxygenase (Rattus norvegicus, UniProt Q63921); experiment: ARBC whole cell cyclooxygenase assay (PGF2α formation in RBL-1 cells, A23187-stimulated); format: cell-based; settings: RBL-1 whole cells; for inhibition at 10 µM: read-out: ARBC % inhibition of PGF2α at 10 μM (class symbol); for IC50: inhibition of PGF2α formation
T1 construct: host or cells: RBL-1
T1 sequence (Q63921 27-602): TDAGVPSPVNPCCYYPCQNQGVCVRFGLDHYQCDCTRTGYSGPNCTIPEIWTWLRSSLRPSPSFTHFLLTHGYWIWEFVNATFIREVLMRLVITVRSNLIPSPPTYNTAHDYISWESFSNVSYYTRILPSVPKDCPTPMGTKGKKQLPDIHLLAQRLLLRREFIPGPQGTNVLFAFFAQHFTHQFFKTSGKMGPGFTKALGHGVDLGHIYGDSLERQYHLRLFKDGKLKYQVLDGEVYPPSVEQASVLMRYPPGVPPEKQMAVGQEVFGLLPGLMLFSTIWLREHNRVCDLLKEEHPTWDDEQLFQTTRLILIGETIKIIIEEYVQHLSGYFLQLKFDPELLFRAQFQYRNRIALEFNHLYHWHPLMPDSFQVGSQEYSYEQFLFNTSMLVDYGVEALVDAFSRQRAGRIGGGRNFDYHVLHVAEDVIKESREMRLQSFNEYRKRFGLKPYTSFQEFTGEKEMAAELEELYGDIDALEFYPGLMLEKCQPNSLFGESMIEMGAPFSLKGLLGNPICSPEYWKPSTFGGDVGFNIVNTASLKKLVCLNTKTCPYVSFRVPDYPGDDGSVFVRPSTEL
Experimental: (§1) ARBL/ARBC Whole cell 5-lipoxygenase and Cyclooxygenase Aasays
(§2) The rat basophilic leukemia cell line (RBL-1) was obtained from the American Type Culture Collection (Rockville, Md.).
(§3) Radioimmunoassay (RIA) kits of LTB4 and PGF2α were obtained from Amersham (Arlington Heights, Ill.) and Seragen (Boston, Mass.), respectively.
(§4) RBL-1 cells are grown in suspension culture in Eagle's minimum essential medium supplemented with 12% fetal bovine serum at 37° C. in an incubator supplied with air-5% carbon dioxide. Cells are harvested by centrifugation. They are washed with cold phosphate buffered saline pH 7.4 (PBS; NaCl, 7.1 g; Na2 HPO4, 1.15 g; KH2 PO4, 0.2 g; and KCl, 0.2 g/L). Cells are finally suspended in PBS containing 1.0 mM calcium at a density of 2×10^6 cells/mL. Cells are incubated with and without test agent (in DMSO) (1% DMSO is without effect on arachidonic acid metabolism) for 10 minutes at room temperature. Calcium ionophore A23187 (5 μM) is added and cells are incubated for 7 minutes at 37° C. The reaction is stopped by chilling the tubes on ice for 10 minutes. Cells are separated by centrifugation and the supernatant is stored at -20° C. Aliquots (100 μL) are analyzed for LTB4 and PGF2α using radioimmunoassay kits as provided by the supplier.
(§5) Table 1 contains biochemical data obtained from this whole cell assay as IC5 s which are calculated as the amount of test compound causing 50% inhibition of LTB4 or PGF2α formation and the results of the CFE-2 assay.

5-lipoxygenase = target: T2, 5-lipoxygenase (Rattus norvegicus, UniProt P12527); experiment: ARBL whole cell 5-lipoxygenase assay (LTB4 formation in RBL-1 cells, A23187-stimulated); format: cell-based; settings: RBL-1 whole cells; for IC50: inhibition of LTB4 formation
T2 construct: host or cells: RBL-1
T2 sequence (P12527 1-673): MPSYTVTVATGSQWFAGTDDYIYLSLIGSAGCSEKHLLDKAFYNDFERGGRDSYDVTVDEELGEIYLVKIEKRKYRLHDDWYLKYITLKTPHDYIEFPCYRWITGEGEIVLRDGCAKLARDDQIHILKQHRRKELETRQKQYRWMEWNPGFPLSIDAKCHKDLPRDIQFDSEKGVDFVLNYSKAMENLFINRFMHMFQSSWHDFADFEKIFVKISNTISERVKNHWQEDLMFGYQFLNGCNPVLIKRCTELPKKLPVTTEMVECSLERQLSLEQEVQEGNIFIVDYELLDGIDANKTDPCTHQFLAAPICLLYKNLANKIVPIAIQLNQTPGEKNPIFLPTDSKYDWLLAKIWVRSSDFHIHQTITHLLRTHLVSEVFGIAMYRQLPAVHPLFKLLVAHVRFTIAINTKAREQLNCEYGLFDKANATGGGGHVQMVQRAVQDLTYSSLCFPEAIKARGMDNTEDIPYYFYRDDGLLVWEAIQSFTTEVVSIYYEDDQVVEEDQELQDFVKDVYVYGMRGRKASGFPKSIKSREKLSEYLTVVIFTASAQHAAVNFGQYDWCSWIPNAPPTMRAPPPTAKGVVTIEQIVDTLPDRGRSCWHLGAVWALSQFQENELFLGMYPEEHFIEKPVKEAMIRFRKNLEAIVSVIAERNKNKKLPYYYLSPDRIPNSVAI
Experimental: as §1, §2, §3, §4, §5

[1] = Carrageenan-Induced Rat Foot Paw Edema-2 (CFE-2) Assay; format: in vivo; settings: dosed 1 hour before carrageenan, edema measured 5 hours after carrageenan
Experimental: Carrageenan-Induced Rat Foot Paw Edema-2 (CFE-2) Assay:Protocol
Carrageenan solution (1% w/v) is prepared by dissolving 100 mg carrageenan (Marine Colloidal Div., Springfield, N.J.) in 10 mL of sterile saline (0.9%) solution (Travenol). The solution is vortexed for 30 to 45 minutes. Animals are dosed with compound 1 hour before carrageenan challenge. Foot paw edema is induced by injecting 0.10 mL of the 1% carrageenan subcutaneously into the plantar portion of the right hind paw of each rat under light anesthesia. Initial foot paw volume is measured immediately following carrageenan challenge using mercury plethysmography (Buxco Electronics). Edema is measured 5 hours after carrageenan. The difference between the 5-hour and the initial paw volume is expressed as delta edema. The delta edema for each test group of animals is used to calculate the percent inhibition of edema achieved by the compound at the test dose compared with the vehicle control group. The ID40 (the dose at which swelling is inhibited by 40%) is calculated by probit analysis for the dose at which 40% inhibition occurs.
as §5

SMILES	inhibition at 10 µM (Cyclooxygenase) [%]	inhibition at 10 µM (5-lipoxygenase; read-out: ARBL % inhibition of LTB4 at 10 μM) [%]	inhibition at 10 µM (5-lipoxygenase; read-out: ARBL % inhibition of LTB4 at 10 μM (class symbol)) [%]	IC50 (Cyclooxygenase) [nM]	IC50 (5-lipoxygenase) [nM]	CFE Percent inhibition at 30 mg/kg [1] [%]
Cc1ccc(Cl)c(Nc2ccccc2-c2nsc(N=C(N)N)n2)c1Cl [Example 3, 3-[2-[(2,6-dichloro-3-methylphenyl)amino]phenyl]-1,2,4-thiadiazol-5-yl-guanidine]	< 40	100				
Cc1ccc(S(=O)(=O)c2nc(-c3ccccc3Nc3c(Cl)ccc(C)c3Cl)ns2)cc1 [Example 2, 2,6-Dichloro-3-methyl-N-[2-[5-[(4-methylphenyl)-sulfonyl]-1,2,4-thiadiazol-3-yl]phenyl]benzenamine]	< 40		< 40			
Cc1ccc(Cl)c(Nc2ccccc2-c2noc(=O)[nH]2)c1Cl [Example 1, 3-[2-[(2,6-dichloro-3-methylphenyl)amino]phenyl]-1,2,4-oxadiazol-5(4H)-one]				13	2300	58
Cc1ccc(Cl)c(Nc2ccccc2-c2nsc(NC#N)n2)c1Cl [Example 4, 3-[2-[(2,6-Dichloro-3-methylphenyl)amino]phenyl]-1,2,4-thiadiazol-5-yl-cyanamide]				1230	6150	

— patent US5114958A, “1,2,4-oxadiazole and 1,2,4-thiadiazole derivatives of fenamates as antiinflammatory agents” (Warner-Lambert Company, priority 1991, dated 1992)
